Measured values as given in patent US20190275027A1 (priority 2018, published 2019).
“And” between values parts separate entries of the source, which are not always exact repeats. Equal entries are not always repeated. Where two headings read alike, the source gives them in different places.

Tests used:
MARV = assay: organism not typed; type: cell-based, Marburg virus; conditions: read-out: MARV IC50
[1] = tested on: wild type Ebola virus, Mayinga strain; assay: microbe, parasite or virus in culture; type: cell-based; conditions: for IC50: Zaire ebolavirus, Huh-7, 24 h, read-out: EBOV IC50
physchem = conditions: pH 7.4, aqueous buffer, kinetic from dmso stock
EBOV = tested on: EBOV; set-up: species or system murine; conditions: mouse, in vivo
EBOV virus = tested on: EBOV virus; set-up: species or system BALB/c mice; conditions: mouse, in vivo

COc1cc2c(cc1OC)[C@@H](Cc1cccc(Oc3cccc(C[C@@H]4c5cc6c(cc5CCN4C)OCO6)c3)c1)N(C)CC2 [B3-36^R,R]
IC50 (MARV): 495 ± 66 nM | IC50 [1]: 413 ± 51 nM

COc1ccc2c(c1)CCN(C)[C@@H]2Cc1ccc(Oc2ccc(C[C@@H]3c4ccc(OC)cc4CCN3C)cc2)cc1 [B4-14^RR]
EBOV activity (in words) [1]: good activity

COc1cc2c(cc1OC)[C@@H](Cc1ccc(Oc3ccc(C[C@@H]4c5cc(OC)c(OC)cc5CCN4C)cc3OC)c(OC)c1)N(C)CC2 [Compound 1]
IC50 (MARV): 506 ± 87 nM | solubility (physchem): > 100 µM | Efficacy (in words) (EBOV): good efficacy | Survival (EBOV): 4/7 and 0/7 | IC50 [1]: 730 ± 60 nM | % Survival (EBOV virus): 100% | Efficacy against Ebola virus challenge (in words) (EBOV virus): statistically significant improvement when compared to TETN and saline | Survival (EBOV virus): 7/7

COc1cc2c(cc1OC)[C@@H](Cc1ccc(Oc3cc(C[C@@H]4c5cc(OC)c(OC)cc5CCN4C)ccc3OC)c(OC)c1)N(C)CC2 [Compound 2]
IC50 (MARV): 1240 ± 269 nM | solubility (physchem): > 100 µM | % Survival (EBOV): 57% and 43% | Efficacy (in words) (EBOV): good efficacy | Survival (EBOV): 4/7 and 3/7 | Efficacy (in words) (EBOV; 5 mg/kg): moderate efficacy | IC50 [1]: 1050 ± 90 nM | % Survival (EBOV virus): 100% | Efficacy against Ebola virus challenge (in words) (EBOV virus): statistically significant improvement when compared to TETN and saline | Survival (EBOV virus): 7/7

COc1cc2c(cc1OC)[C@@H](Cc1ccc(OC)c(Oc3cc(C[C@@H]4c5cc(OC)c(OC)cc5CCN4C)ccc3OC)c1)N(C)CC2 [Compound 3]
IC50 (MARV): 1100 ± 222 nM | solubility (physchem): > 100 µM | IC50 [1]: 1220 ± 119 nM | % Survival (EBOV virus): 71% | Efficacy against Ebola virus challenge (in words) (EBOV virus): good efficacy | Survival (EBOV virus): 5/7

COc1cc2c(cc1OC)[C@@H](Cc1ccc(Oc3ccc(C[C@@H]4c5cc(OC)c(OC)cc5CCN4C)cc3OC)nc1)N(C)CC2 [Compound 4]
IC50 (MARV): 566 ± 108 nM | solubility (physchem): > 100 µM | IC50 [1]: 446 ± 57 nM | % Survival (EBOV virus): 71% | Efficacy against Ebola virus challenge (in words) (EBOV virus): good efficacy | Survival (EBOV virus): 5/7

COc1ccc2c(c1)CCN(C)[C@@H]2Cc1ccc(Oc2ccc(C[C@@H]3c4cc(OC)c(OC)cc4CCN3C)cn2)c(OC)c1 [Compound 5]
IC50 (MARV): 414 ± 70 nM | solubility (physchem): > 100 µM | IC50 [1]: 505 ± 32 nM

COc1ccc2c(c1)CCN(C(C)C)[C@@H]2Cc1ccc(Oc2ccc(C[C@@H]3c4ccc(OC)cc4CCN3C(C)C)cc2)cc1 [Compound 41]
IC50 (MARV): 188 ± 40 nM | IC50 [1]: 249 ± 19 nM

COc1ccc2c(c1)CCN(Cc1ccccc1)[C@@H]2Cc1ccc(Oc2ccc(C[C@@H]3c4ccc(OC)cc4CCN3Cc3ccccc3)cc2)cc1 [Compound 42]
IC50 (MARV): > 1000 nM | IC50 [1]: > 1000 nM

COc1cc(C[C@@H]2c3cc4c(cc3CCN2C)OCO4)ccc1Oc1ccc(C[C@@H]2c3cc4c(cc3CCN2C)OCO4)cc1OC [Compound 45]
IC50 (MARV): 339 ± 56 nM | IC50 [1]: 372 ± 34 nM

COc1cc2c(cc1OC)[C@@H](Cc1ccc(Oc3cccc(C[C@@H]4c5cc(OC)c(OC)cc5CCN4C)c3)nc1)N(C)CC2 [Compound 48]
IC50 (MARV): 1490 ± 320 nM | IC50 [1]: 875 ± 110 nM

COc1cc2c(cc1OC)[C@@H](Cc1cccc(Oc3cc(C[C@@H]4c5cc(OC)c(OC)cc5CCN4C)ccc3OC)c1)N(C)CC2 [Compound 51]
IC50 (MARV): 1180 ± 179 nM | IC50 [1]: 1090 ± 72 nM

COc1ccc(C[C@@H]2c3cc4c(cc3CCN2C)OCO4)cc1Oc1cc(C[C@@H]2c3cc4c(cc3CCN2C)OCO4)ccc1OC [Compound 52]
IC50 (MARV): 585 ± 154 nM | IC50 [1]: 615 ± 40 nM

COc1ccc2c(c1)CCN(C)[C@@H]2Cc1cccc(Oc2cc(C[C@@H]3c4ccc(OC)cc4CCN3C)ccc2OC)c1 [Compound B3-12]
IC50 (MARV): 839 ± 158 nM | IC50 [1]: 1110 ± 179 nM

CN1CCc2cc3c(cc2[C@H]1Cc1cccc(Oc2cccc(C[C@@H]4c5cc6c(cc5CCN4C)OCO6)c2)c1)OCO3 [Compound B3-35]
IC50 (MARV): 537 ± 60 nM | IC50 [1]: 789 ± 97 nM

COc1ccc2c(c1)CCN(C)[C@@H]2Cc1ccc(OC)c(Oc2cc(C[C@@H]3c4ccc(OC)cc4CCN3C)ccc2OC)c1 [Compound B3-42]
IC50 (MARV): 418 ± 47 nM | IC50 [1]: 617 ± 45 nM

COc1ccc2c(c1)CCN(C)[C@@H]2Cc1ccc(Oc2ccc(C[C@@H]3c4ccc(OC)cc4CCN3C)cc2OC)cc1 [Compound B4-17]
IC50 (MARV): 133 ± 26 nM | IC50 [1]: 134 ± 16 nM

COc1ccc2c(c1)CCN(C)[C@@H]2Cc1cccc(Oc2ccc(C[C@@H]3c4cc(OC)c(OC)cc4CCN3C)cc2)c1 [Compound B4-21]
IC50 (MARV): 467 ± 93 nM | IC50 [1]: 424 ± 82 nM

COc1ccc2c(c1)CCN(C)[C@@H]2Cc1ccc(Oc2ccc(C[C@@H]3c4cc(OC)c(OC)cc4CCN3C)cc2)cc1 [Compound B4-24]
IC50 (MARV): 130 ± 49 nM | IC50 [1]: 125 ± 26 nM

COc1cc2c(cc1OC)[C@@H](Cc1ccc(Oc3cccc(C[C@@H]4c5cc(OC)c(OC)cc5CCN4C)c3)cc1)N(C)CC2 [Compound B4-26]
IC50 (MARV): 770 ± 89 nM | IC50 [1]: 530 ± 81 nM

COc1ccc2c(c1)CCN(C)[C@@H]2Cc1cccc(Oc2ccc(C[C@@H]3c4cc5c(cc4CCN3C)OCO5)cc2)c1 [Compound B4-31]
IC50 (MARV): 1180 ± 105 nM | IC50 [1]: 775 ± 156 nM

COc1ccc2c(c1)CCN(C)[C@@H]2Cc1ccc(Oc2ccc(C[C@@H]3c4cc5c(cc4CCN3C)OCO5)cc2)cc1 [Compound B4-34]
IC50 (MARV): 148 ± 48 nM | IC50 [1]: 65 ± 16 nM

COc1cc2c(cc1OC)[C@@H](Cc1cccc(Oc3ccc(C[C@@H]4c5cc6c(cc5CCN4C)OCO6)cc3)c1)N(C)CC2 [Compound B4-36]
IC50 (MARV): 487 ± 88 nM | IC50 [1]: 415 ± 43 nM

COc1ccc2cc1Oc1ccc(cc1)C[C@H]1c3cc(c(OC)cc3CCN1C)Oc1c(OC)c(OC)cc3c1[C@H](C2)N(C)CC3 [TETN, tetrandrine, reference compound]
IC50 (MARV): 370 ± 95 nM | solubility (physchem): > 100 µM | IC50 [1]: 292 ± 31 nM | % Survival (EBOV virus): 57% | Survival (EBOV virus): 4/7
